Test results as given in article PMC10999543, “Identification of kinase modulators as host-directed therapeutics against intracellular methicillin-resistant Staphylococcus aureus” (Frontiers in Cellular and Infection Microbiology, 2024).
Read-outs that look alike come from different tables or passages of the source.

What was measured:
HeLa cells = experiment: Compound screen by flow cytometry: HeLa cell count as surrogate readout of cell viability (z-scoreHeLa); type: cell-based, human; settings: for cell count rep 1 / z-scoreHeLa rep 1: replicate 1; for cell count rep 2 / z-scoreHeLa rep 2: replicate 2; for cell count rep 3 / z-scoreHeLa rep 3: replicate 3; for z-scoreHeLa mean: mean of 3 replicates
Summary of the method: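 HeLa cells were infected with GFP-MRSA (mean MOI 6.8 ± 4.6) for 1 h, and extracellular bacteria were killed with 30 µg/ml gentamicin. Cells were then incubated overnight with kinase inhibitors in 5 µg/ml gentamicin, in triplicate against DMSO controls. Flow-cytometric cell count served as a viability surrogate, expressed as a plate z-score.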

planktonic MRSA cultures = experiment: Bacterial growth assay in cell-free planktonic MRSA cultures (OD600); type: cell-based, Staphylococcus aureus; settings: for direct antibiotic effects against MRSA: planktonic cultures
Experimental: […] The absorbance was measured using an EnVision plate reader (PerkinElmer). The plates were incubated at 37°C overnight and the absorbance was measured again the next day. Real-time measurement of bioluminescence by the MRSA-lux strain was performed in a white flat-bottom 96-wells plate using a SpectraMax i3x plate reader and an integration time set at 9000 ms.

intracellular MRSA = type: cell-based, Staphylococcus aureus; settings: for %GFP+ rep 1 / z-scoreMRSA+ rep 1: replicate 1; for %GFP+ rep 2 / z-scoreMRSA+ rep 2: replicate 2; for %GFP+ rep 3 / z-scoreMRSA+ rep 3: replicate 3; for z-scoreMRSA+ mean: mean of 3 replicates
Summary of the method: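 HeLa, MRSA-GFP at MOI ~6.8, 1 h infection; gentamicin 30 µg/ml for 15 min; inhibitor plus gentamicin 5 µg/ml overnight, 37°C/5% CO2; triplicate plates; FACS %GFP+ and cell count; hit = z ≤ -2 MRSA+, z ≥ -3 count.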

EGFR [1] = system: EGFR; set-up: method as in Drewry et al., 2017; settings: PKIS2, KinomeScan, ref Drewry et al., 2017; cited from earlier work
HER4 [2] = system: HER4; set-up: method as in Drewry et al., 2017; settings: PKIS2, KinomeScan, ref Drewry et al., 2017; cited from earlier work
HER2 [3] = system: HER2; set-up: method as in Drewry et al., 2017; settings: PKIS2, KinomeScan, ref Drewry et al., 2017; cited from earlier work
[4] = system: intracellular MRSA in HeLa cells; experiment: Gentamicin protection assay with CFU count in MRSA-infected HeLa cells; type: cell-based, Staphylococcus aureus; settings: for effect on intracellular MRSA burden: 991 used at 25 μM, rapamycin at 1 μM, Figure 5J; for CFU (% of DMSO) at 10 µM: MRSA-infected HeLa cells
Experimental: The cells were resuspended in cell culture medium without antibiotics, seeded with 10,000 cells/well into Costar flat-bottom 96-well plates (Corning, Amsterdam, the Netherlands), and were incubated overnight at 37°C/5% CO2. The next day, the bacteria were centrifuged at ≥1800 g for 15 min and resuspended in cold PBS + 5 mM ethylenediaminetetraacetic acid (EDTA). The number of CFUs present in the bacterial suspension was estimated from the optical density at 600 nm (OD600) by assuming 8x10^8 CFUs to be present in a bacterial suspension with OD600 = 1, based on prior titrations. The bacterial suspension was diluted in cell culture medium without antibiotics and added to the cells. Accuracy of the multiplicity of infection (MOI) was validated by plating serial dilutions of the MRSA inoculums on Difco TS agar plates (BD Biosciences). The calculated mean MOI throughout all experiments was 6.8 ± 4.6 (mean ± SD). Infected cells were centrifuged for 3 min at 150 g and incubated for 1 hour at 37°C/5% CO2. Next, the cells were incubated with fresh cell culture medium supplemented with 30 µg/ml gentamicin sulphate (Lonza BioWhittaker, Basel, Switzerland) for 15 min at 37°C/5% CO2 to kill residual extracellular bacteria. Infected cells were incubated overnight at 37°C/5% CO2 in cell culture medium in the presence of kinase inhibitors and 5 µg/ml gentamicin sulphate-containing medium to prevent the growth of extracellular bacteria. The solvent of the compounds, DMSO, was used at equal % v/v as a negative control. For the screen, each compound was tested in triplicate, on separate cell culture plates, resulting in triplicate values for each kinase inhibitor.
Infected cells were lysed in sterile water + 0.05% UltraPure SDS solution (Invitrogen, ThermoFisher Scientific) to release intracellular bacteria. Bacterial suspensions and lysates of cells infected with MRSA were 5-fold serially diluted and 10-μl drops were plated on square TS agar plates. The plates were left to dry and incubated overnight at 37°C/5% CO2.

EGFR [5] = system: EGFR; set-up: method as in Elkins et al., 2016; settings: PKIS1, Caliper assay, ref Elkins et al., 2016; cited from earlier work
HER4 [6] = system: HER4; set-up: method as in Elkins et al., 2016; settings: PKIS1, Caliper assay, ref Elkins et al., 2016; cited from earlier work
HER2 [7] = system: HER2; set-up: method as in Elkins et al., 2016; settings: PKIS1, Caliper assay, ref Elkins et al., 2016; cited from earlier work
MRSA = settings: especially against MRSA biofilm formation; ref Liu et al., 2022; cited from earlier work
[8] = PKIS compound screen raw data, HeLa cell count
[9] = PKIS compound screen, HeLa cell count
[10] = PKIS compound screen raw data, MRSA-infected HeLa cells
[11] = PKIS compound screen, MRSA-infected HeLa cells
[12] = PKIS compound screen, Yes/No call (effect without cell death)
[13] = PKIS compounds raw data, HeLa cell count
[14] = compound screen, HeLa cell count
[15] = PKIS compounds raw data, MRSA-infected HeLa cells
[16] = compound screen, MRSA-infected HeLa cells
[17] = PKIS compound screen, Yes/No call

NC(=O)c1cccc(Nc2nccc(Nc3ccc(Oc4cccc(Cl)c4)c(Cl)c3)n2)c1 [GW659008A]
cell count rep 1 (HeLa cells; [8]): 25296 | cell count rep 2 (HeLa cells; [8]): 38684 | cell count rep 3 (HeLa cells; [8]): 42387 | z-scoreHeLa mean (HeLa cells; [9]): 0.60 | z-scoreHeLa rep 1 (HeLa cells; [9]): 0.78 | z-scoreHeLa rep 2 (HeLa cells; [9]): 0.73 | z-scoreHeLa rep 3 (HeLa cells; [9]): 0.30 | cell death (HeLa cells; PKIS compound screen, Yes/No call on z-scoreHeLa): No | inhibition at 10 µM (planktonic MRSA cultures; Staphylococcus aureus, MRSA, read-out: inhibition of planktonic MRSA growth): 67.3% | %GFP+ rep 1 (intracellular MRSA; [10]): 9.2% | %GFP+ rep 2 (intracellular MRSA; [10]): 10.5% | %GFP+ rep 3 (intracellular MRSA; [10]): 10.3% | z-scoreMRSA+ mean (intracellular MRSA; [11]): -2.69 | z-scoreMRSA+ rep 1 (intracellular MRSA; [11]): -2.76 | z-scoreMRSA+ rep 2 (intracellular MRSA; [11]): -2.41 | z-scoreMRSA+ rep 3 (intracellular MRSA; [11]): -2.89 | hit (intracellular MRSA; [12]): Yes | effect (intracellular MRSA; PKIS compound screen, Yes/No call on z-scoreMRSA+): Yes

CS(=O)(=O)CCNCc1nc(-c2ccc3ncnc(Nc4ccc(OCc5cccc(F)c5)c(Cl)c4)c3c2)cs1 [GW583340]
% inhibition at 1 µM EGFR (EGFR [1]): 99.9% | % inhibition at 1 µM HER4 (HER4 [2]): 99.1% | % inhibition at 1 µM HER2 (HER2 [3]): 99.7%

CO/C1=C\C(C)=C\[C@@H](C)[C@@H](O)[C@@H](C)C/C(C)=C/C=C/[C@H](OC)[C@@H]([C@@H](C)[C@@H](O)[C@H](C)[C@@]2(O)C[C@@H](O)[C@H](C)[C@@H](C(C)C)O2)OC1=O [bafilomycin A1, reference compound]
reduction in the intracellular bacterial burden ([4]; HeLa cells, bafilomycin A1 alone (used at 100 nM)): 70% | direct antibiotic effects against MRSA (planktonic MRSA cultures; Supplementary Figure S5): not the case

Cc1ccc(Oc2nc3cc(-c4ccc5c(ccn5C)c4)c(Cl)cc3[nH]2)cc1C(=O)O [Compound 991, reference compound]
effect on intracellular MRSA burden ([4]; HeLa cells): able to reduce the intracellular MRSA burden similar to GW296115X | direct antibiotic effects against MRSA (planktonic MRSA cultures; Supplementary Figure S5): shows direct antibiotic effects

CS(=O)(=O)CCN(CC#N)Cc1ccc(-c2ccc3ncnc(Nc4ccc(OCc5cccc(F)c5)c(Cl)c4)c3c2)o1 [GW616030X]
% inhibition at 1 µM EGFR (EGFR [5]): 77% | CFU (% of DMSO) at 10 µM [4]: 50.3 % of DMSO | % inhibition at 1 µM HER4 (HER4 [6]): 74% | cell count rep 1 (HeLa cells; [13]): 2826 | cell count rep 2 (HeLa cells; [13]): 3932 | cell count rep 3 (HeLa cells; [13]): 5918 | cell death (HeLa cells; Yes/No call from z-scoreHeLa): No | z-scoreHeLa mean (HeLa cells; [14]): -0.84 | z-scoreHeLa rep 1 (HeLa cells; [14]): -1.76 | z-scoreHeLa rep 2 (HeLa cells; [14]): -0.25 | z-scoreHeLa rep 3 (HeLa cells; [14]): -0.50 | %GFP+ rep 1 (intracellular MRSA; [15]): 7.5% | %GFP+ rep 2 (intracellular MRSA; [15]): 7.4% | %GFP+ rep 3 (intracellular MRSA; [15]): 6.2% | effect (intracellular MRSA; Yes/No call from z-scoreMRSA+): Yes | hit (intracellular MRSA; Yes/No: effect without cell death): Yes | z-scoreMRSA+ mean (intracellular MRSA; [16]): -2.24 | z-scoreMRSA+ rep 1 (intracellular MRSA; [16]): -1.82 | z-scoreMRSA+ rep 2 (intracellular MRSA; [16]): -2.03 | z-scoreMRSA+ rep 3 (intracellular MRSA; [16]): -2.88 | % inhibition at 1 µM HER2 (HER2 [7]): 67%

CO[C@H]1C[C@@H]2CC[C@@H](C)[C@@](O)(O2)C(=O)C(=O)N2CCCC[C@H]2C(=O)O[C@H]([C@H](C)C[C@@H]2CC[C@@H](O)[C@H](OC)C2)CC(=O)[C@H](C)/C=C(\C)[C@@H](O)[C@@H](OC)C(=O)[C@H](C)C[C@H](C)/C=C/C=C/C=C/1C [rapamycin, reference compound]
effect on intracellular MRSA burden ([4]; HeLa cells): able to reduce the intracellular MRSA burden similar to GW296115X | direct antibiotic effects against MRSA (planktonic MRSA cultures; Supplementary Figure S5): not the case

CS(=O)(=O)CCNCc1nc(-c2ccc3ncnc(Nc4ccc(OCc5ccccc5)c(Cl)c4)c3c2)cs1 [GW582764]
% inhibition at 1 µM HER4 (HER4 [2]): 97.8% | % inhibition at 1 µM HER2 (HER2 [3]): 100%

CCCN(CCS(C)(=O)=O)Cc1ccc(-c2ccc3ncnc(Nc4ccc(OCc5cccc(F)c5)c(Cl)c4)c3c2)o1 [GW621823A]
% inhibition at 1 µM EGFR (EGFR [5]): 78% | CFU (% of DMSO) at 10 µM [4]: 68.4 % of DMSO | % inhibition at 1 µM HER4 (HER4 [6]): 79% | cell death (HeLa cells; [17]): No | z-scoreHeLa mean (HeLa cells; PKIS compound screen): 0.59 | z-scoreHeLa rep 1 (HeLa cells; PKIS compound screen): 0.17 | z-scoreHeLa rep 2 (HeLa cells; PKIS compound screen): 0.58 | z-scoreHeLa rep 3 (HeLa cells; PKIS compound screen): 1.02 | cell count rep 1 (HeLa cells; [13]): 4961 | cell count rep 2 (HeLa cells; [13]): 5042 | cell count rep 3 (HeLa cells; [13]): 9090 | effect (intracellular MRSA; [17]): Yes | hit (intracellular MRSA; [12]): Yes | z-scoreMRSA+ mean (intracellular MRSA; PKIS compound screen): -2.21 | z-scoreMRSA+ rep 1 (intracellular MRSA; PKIS compound screen): -2.10 | z-scoreMRSA+ rep 2 (intracellular MRSA; PKIS compound screen): -1.86 | z-scoreMRSA+ rep 3 (intracellular MRSA; PKIS compound screen): -2.67 | %GFP+ rep 1 (intracellular MRSA; [15]): 6.6% | %GFP+ rep 2 (intracellular MRSA; [15]): 7.9% | %GFP+ rep 3 (intracellular MRSA; [15]): 6.9% | % inhibition at 1 µM HER2 (HER2 [7]): 82%

CS(=O)(=O)CCNCc1ccc(-c2ccc3ncnc(Nc4ccc(OCc5cccc(F)c5)c(Cl)c4)c3c2)o1 [lapatinib, reference compound]
increase in the intracellular bacterial burden ([4]; 3 µM, HeLa cells): 80% | activity against intracellular MRSA ([4]; 10 and 30 µM, HeLa cells): only modestly active | effect on planktonic MRSA growth (direct antibiotic effect) (planktonic MRSA cultures; up to 100 µM concentration, Supplementary Figure S5): did not observe this direct effect | concentrations resulting in direct antimicrobial effects (MRSA): above 10 µM
